Reference: article PMC5436585 (ACS chemical biology, 2016)

Target: T1, SltB3 (Pseudomonas aeruginosa, UniProt Q9HX28)
T1 sequence (Q9HX28 33-448): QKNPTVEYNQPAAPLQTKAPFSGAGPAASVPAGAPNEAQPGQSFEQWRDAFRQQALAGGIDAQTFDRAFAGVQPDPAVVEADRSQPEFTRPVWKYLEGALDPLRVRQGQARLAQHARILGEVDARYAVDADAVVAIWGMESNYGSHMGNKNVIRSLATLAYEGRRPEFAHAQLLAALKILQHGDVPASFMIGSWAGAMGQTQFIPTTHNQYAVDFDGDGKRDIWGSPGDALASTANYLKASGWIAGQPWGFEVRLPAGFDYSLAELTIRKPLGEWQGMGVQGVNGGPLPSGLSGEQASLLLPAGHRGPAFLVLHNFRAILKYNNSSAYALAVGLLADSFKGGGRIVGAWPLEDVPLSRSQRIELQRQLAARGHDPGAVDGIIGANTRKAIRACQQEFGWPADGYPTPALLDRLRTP
Test: LC/MS product quantification, nonlinear regression
Format: biochemical
Conditions: 20 mM HEPES, 0.1 M NaCl, 0.1% Triton X, pH 7.0, 25 °C; 8 nM enzyme

Question: CO[C@@H]1O[C@H](CO)[C@@H](O[C@@H]2O[C@H](CO)[C@@H](O[C@@H]3O[C@H](CO)[C@@H](O[C@@H]4O[C@H](CO)[C@@H](O)[C@H](O)[C@H]4NC(C)=O)[C@H](O[C@H](C)C(=O)N[C@@H](C)C(=O)N[C@H](CCC(=O)N[C@@H](CCC[C@@H](N)C(=O)O)C(=O)N[C@H](C)C(=O)N[C@H](C)C(=O)O)C(=O)O)[C@H]3NC(C)=O)[C@H](O)[C@H]2NC(C)=O)[C@H](O[C@H](C)C(=O)N[C@@H](C)C(=O)N[C@H](CCC(=O)N[C@@H](CCC[C@@H](N)C(=O)O)C(=O)N[C@H](C)C(=O)N[C@H](C)C(=O)O)C(=O)O)[C@H]1NC(C)=O [compound 1] was tested. Which Km did it give?
Answer: 200 ± 20 µM
